In paper PMC8992272, “Stabilities of Three Key Biological Trisulfides with Implications for Their Roles in the Release of Hydrogen Sulfide and Bioaccumulation of Sulfane Sulfur” (ACS Omega, 2022):
Like-named read-outs stand apart in the source and are kept apart here.

Legend:
Assay type in all cases: physicochemical
[1] = Stability in D2O in the presence of butylamine or triethylamine, tracked by 1H NMR
Protocol: N-Acetylcysteine trisulfide (26.5 mg, 66 μmol) was dissolved in 600 μL of D2O. Butylamine (5.0 mg, 68 μmol) was added, and the ^1H NMR spectra were taken periodically to track degradation.
N-Acetylcysteine trisulfide (26.5 mg, 66 μmol) was dissolved in 600 μL of D2O. Triethylamine (8.0 mg, 79 μmol) was added, and the ^1H NMR spectra were taken periodically to track degradation.
Cysteine trisulfide (5.5 mg, 20 μmol) was added to 600 μL of D2O. The solution was filtered to remove undissolved particles. […] The ^1H NMR spectra were taken periodically to track degradation.
Cysteine trisulfide (4.3 mg, 16 μmol) was added to 600 μL of D2O. The solution was filtered to remove undissolved particles. […] The ^1H NMR spectra were taken periodically to track degradation.
N-Acetylcysteine tetrasulfide (17.2 mg, 44 μmol) was dissolved in 600 μL of D2O. Butylamine (9.9 mg, 135 μmol) was added, and the ^1H NMR spectra were taken periodically to track degradation.
N-Acetylcysteine tetrasulfide (17.2 mg, 44 μmol) was dissolved in 600 μL of D2O. Triethylamine (13.5 mg, 135 μmol) was added, and the ^1H NMR spectra were taken periodically to track degradation.

[2] = Stability in nonbuffered D2O at room and elevated temperature (1H NMR)
Protocol: N-Acetylcysteine trisulfide (24.3 mg, 61 μmol) was dissolved in 500 μL of D2O and placed in a 40 °C oil bath. The ^1H NMR spectra were taken periodically to track degradation.
N-Acetylcysteine trisulfide (24.3 mg, 61 μmol) was dissolved in 500 μL of D2O and placed in a 60 °C oil bath. The ^1H NMR spectra were taken periodically to track degradation.
N-Acetylcysteine tetrasulfide (8.0 mg, 21 μmol) was dissolved in 600 μL of D2O. The ^1H NMR spectra were taken periodically to track degradation.
N-Acetylcysteine tetrasulfide (10.0 mg, 26 μmol) was dissolved in 600 μL of D2O and placed in a 40 °C oil bath. The ^1H NMR spectra were taken periodically to track degradation.

[3] = Degradation in the presence of butylamine under biologically relevant conditions (37 °C, pH 7.4); details: pH 7.4 D2O; for degraded: 10 mM
Protocol: To investigate how amines degrade polysulfides in the body, NAC trisulfide was dissolved in pH 7.4 in D2O at a concentration of 10 mM. […] Butylamine was added and the reaction was maintained at body temperature (37 °C). Degradation was tracked using ^1H NMR spectroscopy (Figure 8).
N-Acetylcysteine trisulfide (14.4 mg, 36 μmol) was dissolved in 3.6 mL of D2O buffered to pH 7.4. Butylamine (11 μL, 110 μmol) was added and the contents were heated to 37 °C. The ^1H NMR spectra were taken periodically to track degradation.

[4] = Kinetics of degradation of trisulfides in the presence of a thiol (1H NMR); details: water, NAC added, vial uncapped to allow H2S to evaporate, after 1 day
Protocol: To investigate the rate of reaction of trisulfides with an added thiol and to characterize the degradation products, 5 mM trisulfides of cysteine, glutathione, and NAC were separately added to […] For instance, 5 equiv of cysteine was added to cysteine trisulfide and 5 equiv of NAC was added to NAC trisulfide. The pH was buffered to a pH of 7.0 to ensure that each trisulfide was soluble and to closely mimic in vivo pH.
Cysteine trisulfide (0.7 mg, 2.6 μmol) was dissolved in 500 μL of D2O buffered to pH 7.0, yielding a 5 mM solution. Cysteine (1.5 mg, 12.4 μmol) was added, and the ^1H NMR spectra were periodically obtained to track degradation.
Glutathione trisulfide (1.6 mg, 2.6 μmol) was added to 500 μL of D2O buffered to a pH of 7.0, yielding a 5 mM solution. Glutathione (3.8 mg, 12.4 μmol) was added, and the ^1H NMR spectra were obtained periodically to track degradation.
N-Acetylcysteine trisulfide (1.0 mg, 2.6 μmol) was dissolved in 500 μL of D2O buffered to pH 7.0, yielding a 5 mM solution. N-Acetylcysteine (2.1 mg, 12.4 μmol) was added, and the ^1H NMR spectra were obtained periodically to track degradation.
Cysteine trisulfide (0.7 mg, 2.6 μmol) was dissolved in 500 μL of D2O buffered to pH 7.0, yielding a 5 mM solution. tert-Butanol (0.8 μL, 2.6 μmol) was added as an internal standard. […]

- degraded ([1]; 1 equiv butylamine, D2O, after 1 h): 43%
- degraded ([1]; 1 equiv butylamine, D2O, after 24 h): 92%
- degraded ([1]; 1 equiv triethylamine, D2O, after 1 h): 14%
- degraded ([1]; 1 equiv triethylamine, D2O, after 24 h): 87%
- half-life ([1]; D2O with butylamine, in the presence of butylamine (abstract), read-out: half-life): 53 min
- half-life ([1]; D2O with butylamine, in the presence of butylamine, D2O, early data points, read-out: estimated half-life of degradation (converted)): 56.4 min
- half-life ([1]; D2O with triethylamine, in the presence of triethylamine, D2O, early data points, read-out: estimated half-life of degradation (converted)): 132 min
- time to reach equilibrium ([1]; addition of butylamine or triethylamine): less than 5 h
- tetrasulfide observed as product ([1]; both reactions (butylamine, triethylamine), D2O): < 3%
- degraded ([2]; 60 °C, in 3 days): 74%
- degradation ([2]; water, 40 °C oil bath, after 10 days): No noticeable degradation
- degraded ([3]; after 1 h): 45%
- degraded ([3]; after 2 h): 81%
- degraded ([3]; after 1 day): 81%
- half-life at 10 mM ([3]; D2O buffered to pH 7.4 with butylamine, early data points, read-out: estimated half-life (converted)): 46.2 min
- trisulfide remaining [4]: no NAC trisulfide was observed
Structure (SMILES): CC(=O)N[C@@H](CSSSC[C@H](NC(C)=O)C(=O)O)C(=O)O [NAC trisulfide, N-Acetylcysteine Trisulfide]
